pIC50: −log10 of the molar value. Like-named read-outs stand apart in the source and are kept apart here.
Legend:
Experiment in all cases: Kinase panel study
Assay type in all cases: biochemical
BTK = biological target: T1, BTK (Homo sapiens, UniProt Q06187); conditions: for inhibition at 1 µM: 1000nM
T1 construct: purchased Thermo Fisher Scientific
Experimental: (§1) The Kinase panel study was entirely provided by Thermo Fisher Scientific using the two lead compounds MW01 and MW05 as well as their derivatives (MW01-E06, MW01-E10, MW01-E14, MW01-E18, MW05-E2, MW05-E3, MW05-E9 and MW05-E10. The experiment was performed using the ZLyte or Adapta protocol according to manufacturer standard operating procedures.
(§2) Based on their similar effects in our screen and molecular analysis, MW01 and MW05 were used in comparative target deconvolution studies seeking common targets despite their distinct structures. To eliminate previously identified kinases regulating NF-κB activity, such as IKK, as possible targets of MW01 and MW05, an in vitro kinase inhibition assay was performed. […] We next investigated if any of the shared kinase targets of MW01 and MW05 play a role in genotoxic stress-induced NF-κB activity and established several criteria to narrow down pathway-relevant targets. Considering the similar NF-κB inhibition phenotypes of both compounds, we hypothesized first that the target should be shared by both lead compounds. Second, based on the CaCo2 recovery values and experimental treatment concentration of 10 µM), the putative target kinase should have a low IC50 of, at most, 2000 nM for both lead compounds in the in vitro kinase panel (Fig. 2A). Based on these criteria alone, we arrived at a relatively short list of potential targets for further analysis, leaving only PIK3CG, PIK3C2G, and CLK2 (Fig. 2B). IC50 values for PIK3C2G by both lead compounds agreed best with these criteria, but RNA expression analysis indicates high tissue specificity as well as lack of expression of this kinase in our U2-OS model cell line, which we then eliminated from further analysis (Uhlén et al., 2015). […] Table 6: Percentage of inhibition of the indicated kinases by MW01 or MW05 at either 10 µM or 1 µM. n.d. = not determined.

MAP4K2 (GCK) = biological target: T2, MAP4K2 (GCK) (Homo sapiens, UniProt Q12851); conditions: for inhibition at 1 µM: 1000nM
T2 construct: purchased Thermo Fisher Scientific
T2 sequence (Q12851 1-820): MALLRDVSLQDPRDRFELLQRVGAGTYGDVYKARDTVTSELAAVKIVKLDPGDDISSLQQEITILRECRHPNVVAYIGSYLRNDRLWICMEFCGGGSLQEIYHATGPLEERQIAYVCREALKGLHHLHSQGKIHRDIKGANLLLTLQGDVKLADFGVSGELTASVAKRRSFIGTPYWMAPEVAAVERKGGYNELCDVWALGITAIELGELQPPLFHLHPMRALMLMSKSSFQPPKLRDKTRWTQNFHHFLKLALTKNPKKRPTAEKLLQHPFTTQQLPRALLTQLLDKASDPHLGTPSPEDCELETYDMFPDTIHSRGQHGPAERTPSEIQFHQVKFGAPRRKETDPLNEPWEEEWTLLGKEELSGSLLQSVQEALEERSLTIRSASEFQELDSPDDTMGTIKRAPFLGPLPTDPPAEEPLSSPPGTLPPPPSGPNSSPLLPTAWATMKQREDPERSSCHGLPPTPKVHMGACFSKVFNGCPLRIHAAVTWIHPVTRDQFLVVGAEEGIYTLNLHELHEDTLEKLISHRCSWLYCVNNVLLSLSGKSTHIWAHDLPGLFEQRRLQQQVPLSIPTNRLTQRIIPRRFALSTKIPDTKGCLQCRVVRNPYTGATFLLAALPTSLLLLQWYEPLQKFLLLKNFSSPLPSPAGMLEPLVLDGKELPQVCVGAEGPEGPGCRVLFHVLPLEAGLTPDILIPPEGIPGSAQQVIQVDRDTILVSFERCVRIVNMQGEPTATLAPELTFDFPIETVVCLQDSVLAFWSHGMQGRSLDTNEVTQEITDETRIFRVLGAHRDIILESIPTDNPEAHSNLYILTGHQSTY
Experimental: as §1, §2

BLK = biological target: T3, BLK (Homo sapiens, UniProt P51451); conditions: for inhibition at 1 µM: 1000nM
T3 construct: purchased Thermo Fisher Scientific
T3 sequence (P51451 whole entry): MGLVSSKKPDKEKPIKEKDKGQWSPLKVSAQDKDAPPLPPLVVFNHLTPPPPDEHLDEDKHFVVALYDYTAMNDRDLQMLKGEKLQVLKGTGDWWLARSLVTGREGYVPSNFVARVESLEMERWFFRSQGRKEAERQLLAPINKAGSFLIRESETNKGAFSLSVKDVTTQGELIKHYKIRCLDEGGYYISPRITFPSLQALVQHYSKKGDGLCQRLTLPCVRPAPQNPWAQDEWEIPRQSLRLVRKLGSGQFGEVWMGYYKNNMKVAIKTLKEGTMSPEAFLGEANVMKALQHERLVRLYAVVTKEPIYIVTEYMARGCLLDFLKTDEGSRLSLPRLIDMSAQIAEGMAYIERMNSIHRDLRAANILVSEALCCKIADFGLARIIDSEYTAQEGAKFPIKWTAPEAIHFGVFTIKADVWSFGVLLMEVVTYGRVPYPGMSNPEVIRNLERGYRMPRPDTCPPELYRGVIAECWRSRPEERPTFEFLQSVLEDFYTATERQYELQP
Experimental: as §1, §2

AKT2 (PKB beta) = biological target: T4, AKT2 (PKB beta) (Homo sapiens, UniProt P31751); conditions: for inhibition at 1 µM: 1000nM
T4 construct: purchased Thermo Fisher Scientific
T4 sequence (P31751 whole entry): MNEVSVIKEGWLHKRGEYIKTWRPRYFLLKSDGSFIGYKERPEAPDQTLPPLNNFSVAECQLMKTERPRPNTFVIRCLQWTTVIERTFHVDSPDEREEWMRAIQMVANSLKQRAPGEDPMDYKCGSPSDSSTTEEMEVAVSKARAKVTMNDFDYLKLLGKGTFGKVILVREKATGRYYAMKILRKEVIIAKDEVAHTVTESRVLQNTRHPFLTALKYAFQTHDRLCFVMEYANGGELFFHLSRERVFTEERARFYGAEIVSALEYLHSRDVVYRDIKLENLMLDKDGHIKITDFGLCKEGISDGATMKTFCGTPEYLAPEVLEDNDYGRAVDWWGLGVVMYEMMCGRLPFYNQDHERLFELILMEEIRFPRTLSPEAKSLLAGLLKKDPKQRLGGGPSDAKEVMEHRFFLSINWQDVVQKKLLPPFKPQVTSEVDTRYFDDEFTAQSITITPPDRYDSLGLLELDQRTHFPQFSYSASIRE
Experimental: as §1, §2

PIP4K2A = biological target: T5, PIP4K2A (Homo sapiens, UniProt P48426); conditions: for inhibition at 1 µM: 1000nM
T5 construct: purchased Thermo Fisher Scientific
T5 sequence (P48426 1-406): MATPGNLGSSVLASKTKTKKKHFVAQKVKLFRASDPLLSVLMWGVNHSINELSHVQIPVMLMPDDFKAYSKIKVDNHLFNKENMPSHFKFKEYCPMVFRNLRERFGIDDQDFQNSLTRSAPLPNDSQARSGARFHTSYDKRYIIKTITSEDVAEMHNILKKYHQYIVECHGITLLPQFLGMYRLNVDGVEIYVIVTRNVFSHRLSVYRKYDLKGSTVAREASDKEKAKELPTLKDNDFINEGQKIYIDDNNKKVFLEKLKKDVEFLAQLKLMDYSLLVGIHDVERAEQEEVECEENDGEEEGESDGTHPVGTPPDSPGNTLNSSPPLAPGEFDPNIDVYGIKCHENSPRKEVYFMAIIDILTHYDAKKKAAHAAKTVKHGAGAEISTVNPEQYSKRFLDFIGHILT
Experimental: as §1, §2

PIP5K1B = biological target: T6, PIP5K1B (Homo sapiens, UniProt O14986); conditions: for inhibition at 1 µM: 1000nM
T6 construct: purchased Thermo Fisher Scientific
Experimental: as §1, §2

AKT1 (PKB alpha) = biological target: T7, AKT1 (PKB alpha) (Homo sapiens, UniProt P31749); conditions: for inhibition at 1 µM: 1000nM
T7 construct: purchased Thermo Fisher Scientific
T7 sequence (P31749 whole entry): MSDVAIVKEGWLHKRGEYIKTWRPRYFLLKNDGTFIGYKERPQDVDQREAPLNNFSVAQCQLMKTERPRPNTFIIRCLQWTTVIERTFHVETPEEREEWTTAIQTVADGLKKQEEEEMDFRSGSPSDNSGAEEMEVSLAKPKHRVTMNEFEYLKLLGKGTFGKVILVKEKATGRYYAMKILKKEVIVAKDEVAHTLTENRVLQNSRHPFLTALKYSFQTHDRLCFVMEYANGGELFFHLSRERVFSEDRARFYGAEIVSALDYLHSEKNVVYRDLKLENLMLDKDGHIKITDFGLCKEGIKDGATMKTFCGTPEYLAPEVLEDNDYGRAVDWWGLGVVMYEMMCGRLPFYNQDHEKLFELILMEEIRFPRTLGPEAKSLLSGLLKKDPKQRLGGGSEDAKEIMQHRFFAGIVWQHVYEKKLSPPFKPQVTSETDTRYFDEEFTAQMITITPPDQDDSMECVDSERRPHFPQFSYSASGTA
Experimental: as §1, §2

[1] = biological target: T8, PIK3CB/PIK3R2 (p11 0 beta/p85 beta) (Homo sapiens, UniProt P42338); conditions: for inhibition at 1 µM: 1000nM
T8 construct: purchased Thermo Fisher Scientific
Experimental: as §1, §2

AKT3 (PKB gamma) = biological target: T9, AKT3 (PKB gamma) (Homo sapiens, UniProt Q9Y243); conditions: for inhibition at 1 µM: 1000nM
T9 construct: purchased Thermo Fisher Scientific
T9 sequence (Q9Y243 whole entry): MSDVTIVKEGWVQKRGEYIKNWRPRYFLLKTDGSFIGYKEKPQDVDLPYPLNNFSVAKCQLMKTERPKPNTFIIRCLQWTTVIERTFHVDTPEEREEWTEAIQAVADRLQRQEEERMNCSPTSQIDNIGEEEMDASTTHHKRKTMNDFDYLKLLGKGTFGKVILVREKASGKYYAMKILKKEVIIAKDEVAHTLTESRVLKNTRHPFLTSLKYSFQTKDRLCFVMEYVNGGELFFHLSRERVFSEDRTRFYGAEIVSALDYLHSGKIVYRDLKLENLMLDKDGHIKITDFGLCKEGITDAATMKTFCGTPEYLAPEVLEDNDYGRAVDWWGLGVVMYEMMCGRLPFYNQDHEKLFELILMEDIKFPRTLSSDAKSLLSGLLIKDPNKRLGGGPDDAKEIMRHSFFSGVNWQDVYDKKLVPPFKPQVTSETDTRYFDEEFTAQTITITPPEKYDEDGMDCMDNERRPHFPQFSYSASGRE
Experimental: as §1, §2

PIK3CG (p11 0 gamma) = biological target: T10, PIK3CG (p11 0 gamma) (Homo sapiens, UniProt P48736); conditions: for inhibition at 1 µM: 1000nM; for pIC50: in vitro kinase panel, criterion of at most 2000 nM
T10 construct: purchased Thermo Fisher Scientific
Experimental: as §1, §2

IRAK1 = biological target: T11, IRAK1 (Homo sapiens, UniProt P51617); conditions: for inhibition at 1 µM: 1000nM
T11 construct: purchased Thermo Fisher Scientific
T11 sequence (P51617 whole entry): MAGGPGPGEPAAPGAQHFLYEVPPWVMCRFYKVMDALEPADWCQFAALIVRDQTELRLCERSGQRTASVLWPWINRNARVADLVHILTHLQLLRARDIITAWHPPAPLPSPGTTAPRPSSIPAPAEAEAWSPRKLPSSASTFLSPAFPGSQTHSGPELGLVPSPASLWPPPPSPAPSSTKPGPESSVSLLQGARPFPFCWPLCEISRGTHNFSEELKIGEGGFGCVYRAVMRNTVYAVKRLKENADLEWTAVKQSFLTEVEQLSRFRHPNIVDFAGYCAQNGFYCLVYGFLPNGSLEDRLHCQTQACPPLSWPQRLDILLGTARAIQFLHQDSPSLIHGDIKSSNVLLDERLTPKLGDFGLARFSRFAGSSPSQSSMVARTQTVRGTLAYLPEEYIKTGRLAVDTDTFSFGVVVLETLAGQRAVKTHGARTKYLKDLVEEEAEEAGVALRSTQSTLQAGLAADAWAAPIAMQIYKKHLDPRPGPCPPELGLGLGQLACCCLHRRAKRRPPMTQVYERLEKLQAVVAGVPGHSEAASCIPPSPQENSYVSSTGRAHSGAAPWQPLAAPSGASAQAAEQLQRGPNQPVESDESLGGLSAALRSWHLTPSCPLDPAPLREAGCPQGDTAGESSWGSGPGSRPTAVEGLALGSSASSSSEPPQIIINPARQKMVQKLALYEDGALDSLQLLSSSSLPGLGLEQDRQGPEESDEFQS
Experimental: as §1, §2

PIK3C2A (PI3K-C2 alpha) = biological target: T12, PIK3C2A (PI3K-C2 alpha) (Homo sapiens, UniProt O00443); conditions: for inhibition at 1 µM: 1000nM
T12 construct: purchased Thermo Fisher Scientific
Experimental: as §1, §2

[2] = biological target: T13, PIK3CA/PIK3R3 (p11 0 alpha/p55 gamma) (Homo sapiens, UniProt P42336); conditions: for inhibition at 1 µM: 1000nM
T13 construct: purchased Thermo Fisher Scientific
T13 sequence (P42336 whole entry): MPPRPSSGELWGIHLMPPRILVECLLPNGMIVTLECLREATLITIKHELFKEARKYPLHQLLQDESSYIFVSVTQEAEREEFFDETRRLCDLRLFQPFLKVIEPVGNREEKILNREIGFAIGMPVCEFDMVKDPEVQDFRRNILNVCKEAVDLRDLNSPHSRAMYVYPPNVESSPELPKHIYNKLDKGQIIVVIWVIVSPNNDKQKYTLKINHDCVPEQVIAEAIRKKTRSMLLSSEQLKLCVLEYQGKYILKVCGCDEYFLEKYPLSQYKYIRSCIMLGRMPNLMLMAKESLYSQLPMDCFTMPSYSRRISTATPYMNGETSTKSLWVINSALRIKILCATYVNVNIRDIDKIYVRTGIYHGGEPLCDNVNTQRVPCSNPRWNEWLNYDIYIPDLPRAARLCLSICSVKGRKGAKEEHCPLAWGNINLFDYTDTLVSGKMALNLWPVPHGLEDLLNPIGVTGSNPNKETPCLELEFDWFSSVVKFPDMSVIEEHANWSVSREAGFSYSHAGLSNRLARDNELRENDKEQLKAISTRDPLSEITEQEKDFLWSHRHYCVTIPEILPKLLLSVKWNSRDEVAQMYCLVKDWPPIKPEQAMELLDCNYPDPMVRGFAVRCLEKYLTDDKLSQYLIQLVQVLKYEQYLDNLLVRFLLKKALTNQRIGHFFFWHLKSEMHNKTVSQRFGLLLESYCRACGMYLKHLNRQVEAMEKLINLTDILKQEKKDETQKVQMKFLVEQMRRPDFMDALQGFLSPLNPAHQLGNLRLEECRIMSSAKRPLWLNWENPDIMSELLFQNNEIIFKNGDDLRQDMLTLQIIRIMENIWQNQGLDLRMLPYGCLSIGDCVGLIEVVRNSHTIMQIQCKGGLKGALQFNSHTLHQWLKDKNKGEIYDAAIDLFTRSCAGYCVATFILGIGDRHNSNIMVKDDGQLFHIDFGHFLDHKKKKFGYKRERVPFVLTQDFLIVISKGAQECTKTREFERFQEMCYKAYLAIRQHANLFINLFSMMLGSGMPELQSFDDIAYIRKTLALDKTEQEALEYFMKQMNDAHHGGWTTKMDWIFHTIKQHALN
Experimental: as §1, §2

[3] = read-out: Percentage of inhibition
[4] = 10000nM, read-out: Percentage of inhibition
[5] = BTK, compound at 10µM, read-out: % of Inhibition
[6] = MAP4K2 (GCK), compound at 10µM, read-out: % of Inhibition
[7] = BLK, compound at 10µM, read-out: % of Inhibition
[8] = AKT2 (PKB beta), compound at 10µM, read-out: % of Inhibition
[9] = PIP4K2A, compound at 10µM, read-out: % of Inhibition
[10] = PIP5K1B, compound at 10µM, read-out: % of Inhibition
[11] = AKT1 (PKB alpha), compound at 10µM, read-out: % of Inhibition
[12] = PIK3CB/PIK3R2, compound at 10µM, read-out: % of Inhibition
[13] = AKT3 (PKB gamma), compound at 10µM, read-out: % of Inhibition
[14] = PIK3CG, compound at 10µM, read-out: % of Inhibition
[15] = IRAK1, compound at 10µM, read-out: % of Inhibition
[16] = PIK3C2A (PI3K-C2 alpha), compound at 10µM, read-out: % of Inhibition
[17] = PIK3CA/PIK3R3, compound at 10µM, read-out: % of Inhibition

T1 sequence (Q06187 whole entry): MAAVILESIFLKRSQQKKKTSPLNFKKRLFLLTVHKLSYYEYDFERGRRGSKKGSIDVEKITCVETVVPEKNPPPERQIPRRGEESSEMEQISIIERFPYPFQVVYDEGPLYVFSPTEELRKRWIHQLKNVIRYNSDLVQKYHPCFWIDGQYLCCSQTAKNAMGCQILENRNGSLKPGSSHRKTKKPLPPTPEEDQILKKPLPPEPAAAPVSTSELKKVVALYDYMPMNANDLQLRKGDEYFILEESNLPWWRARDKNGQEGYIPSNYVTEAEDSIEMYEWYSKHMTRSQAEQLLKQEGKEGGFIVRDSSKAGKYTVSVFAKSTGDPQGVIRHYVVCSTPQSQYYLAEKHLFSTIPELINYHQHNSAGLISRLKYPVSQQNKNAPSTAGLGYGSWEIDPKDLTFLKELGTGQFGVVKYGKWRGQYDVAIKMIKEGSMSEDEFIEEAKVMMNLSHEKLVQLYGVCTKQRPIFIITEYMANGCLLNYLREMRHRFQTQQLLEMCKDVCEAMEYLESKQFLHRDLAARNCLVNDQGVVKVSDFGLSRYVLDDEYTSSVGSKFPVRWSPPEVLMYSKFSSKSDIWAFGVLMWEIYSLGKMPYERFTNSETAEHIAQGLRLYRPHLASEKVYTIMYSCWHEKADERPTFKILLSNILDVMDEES

SMILES	inhibition at 1 µM (BTK; [3]) [%]	inhibition at 10 µM (BTK; [4]) [%]	inhibition at 1 µM (MAP4K2 (GCK); [3]) [%]	inhibition at 10 µM (MAP4K2 (GCK); [4]) [%]	inhibition at 1 µM (BLK; [3]) [%]	inhibition at 10 µM (BLK; [4]) [%]	inhibition at 1 µM (AKT2 (PKB beta); [3]) [%]	inhibition at 10 µM (BTK; [5]) [%]	inhibition at 10 µM (MAP4K2 (GCK); [6]) [%]	inhibition at 10 µM (BLK; [7]) [%]	inhibition at 10 µM (AKT2 (PKB beta); [8]) [%]	inhibition at 10 µM (PIP4K2A; [9]) [%]	inhibition at 10 µM (PIP5K1B; [10]) [%]	inhibition at 10 µM (AKT1 (PKB alpha); [11]) [%]	inhibition at 10 µM [1, 12] [%]	inhibition at 10 µM (AKT3 (PKB gamma); [13]) [%]	inhibition at 10 µM (PIK3CG (p11 0 gamma); [14]) [%]	inhibition at 10 µM (IRAK1; [15]) [%]	inhibition at 10 µM (PIK3C2A (PI3K-C2 alpha); [16]) [%]	inhibition at 10 µM [2, 17] [%]	also measured
COc1ccc2c(c1OC)c(=O)n1c3ccc(O)cc3c3ccnc2c31 [MW01, 5-Hydroxy-10,11-dimethoxy-9H-benzo[c]indolo[3,2,1-ij][1,5]naphthyridin-9-one]	11	23	50	77	8	26	1	–	–	–	–	–	–	–	–	–	–	–	–	–	inhibition at 10 µM (AKT2 (PKB beta); [4]): 9%; inhibition at 1 µM (PIP4K2A; [3]): -8%; inhibition at 10 µM (PIP4K2A; [4]): -3%; inhibition at 1 µM (PIP5K1B; [3]): 4%; inhibition at 10 µM (PIP5K1B; [4]): 21%; inhibition at 1 µM (AKT1 (PKB alpha); [3]): 5%; inhibition at 10 µM (AKT1 (PKB alpha); [4]): 10%; inhibition at 1 µM [1, 3]: 24%; inhibition at 10 µM [1, 4]: 66%; inhibition at 1 µM (AKT3 (PKB gamma); [3]): 7%; inhibition at 10 µM (AKT3 (PKB gamma); [4]): 18%; inhibition at 1 µM (PIK3CG (p11 0 gamma); [3]): 81%; inhibition at 10 µM (PIK3CG (p11 0 gamma); [4]): 88%; pIC50 (PIK3CG (p11 0 gamma)): ≥ 5.70; inhibition at 1 µM (IRAK1; [3]): 57%; inhibition at 10 µM (IRAK1; [4]): 67%; inhibition at 1 µM (PIK3C2A (PI3K-C2 alpha); [3]): 26%; inhibition at 10 µM (PIK3C2A (PI3K-C2 alpha); [4]): 43%; inhibition at 1 µM [2, 3]: 92%; inhibition at 10 µM [2, 4]: 96%
COc1ccc2c(c1)c1ccnc3c4nc(OC)ccc4c(=O)n2c13 [MW01-E6, 5,15-dimethoxy-1,11,14-triazapentacyclo[10.7.1,0^2,7.0^8,^20.0^13,^18]icosa-2(7),3,5,8(20),9,11,13(18),14,16-nonaen-19-one]	–	–	–	–	–	–	–	30	70	23	4	-4	14	6	12	12	-1	56	26	10	–
O=c1c2cc(O)ccc2c2nccc3c4cc(O)ccc4n1c32 [MW01-E10, 5,16-dihydroxy-1,11-diazapentacyclo[10.7.1.0^2,^7.0^8,^20.0^13,^18]icosa-2(7),3,5,8(20),9,11,13(18),14,16-nonaen-19-one]	–	–	–	–	–	–	–	69	98	42	18	-2	5	18	35	24	93	71	31	90	–
COc1ccc2c(c1)c1ccnc3c4ccnc(OC)c4c(=O)n2c13 [MW01-E14, 5,17-dimethoxy-1,11,16-triazapentacyclo[10.7.1.0^2,^7.0^8,^20.0^13,^18]icosa-2(7),3,5,8(20),9,11,13(18),14,16-nonaen-19-one]	–	–	–	–	–	–	–	29	81	9	14	53	26	9	12	23	49	9	23	59	–
O=c1c2cnccc2c2nccc3c4cc(O)ccc4n1c32 [MW01-E18, 5-hydroxy-1,11,16-triazapentacyclo[10.7.1.0^2,^7.0^8,^20.0^13,^18]icosa-2(7),3,5,8(20),9,11,13(18),14,16-nonaen-19-one]	–	–	–	–	–	–	–	30	93	23	3	-1	-3	12	63	19	99	69	44	94	–
COc1ccc2cc3c(N)nn(C(=O)c4cccc(N(C)C)c4)c3nc2c1 [MW05, (3-Amino-7-methoxypyrazolo[3,4-b]quinolin-1-yl)-[3-(dimethylamino)phenyl]methanone]	5	8	13	10	0	-1	10	–	–	–	–	–	–	–	–	–	–	–	–	–	inhibition at 10 µM (AKT2 (PKB beta); [4]): -8%; inhibition at 1 µM (PIP4K2A; [3]): -10%; inhibition at 10 µM (PIP4K2A; [4]): -9%; inhibition at 1 µM (PIP5K1B; [3]): -13%; inhibition at 10 µM (PIP5K1B; [4]): 7%; inhibition at 1 µM (AKT1 (PKB alpha); [3]): 3%; inhibition at 10 µM (AKT1 (PKB alpha); [4]): 3%; inhibition at 1 µM [1, 3]: 15%; inhibition at 10 µM [1, 4]: 64%; inhibition at 1 µM (AKT3 (PKB gamma); [3]): 4%; inhibition at 10 µM (AKT3 (PKB gamma); [4]): -6%; inhibition at 1 µM (PIK3CG (p11 0 gamma); [3]): 20%; inhibition at 10 µM (PIK3CG (p11 0 gamma); [4]): 70%; pIC50 (PIK3CG (p11 0 gamma)): ≥ 5.70; inhibition at 1 µM (IRAK1; [3]): 17%; inhibition at 10 µM (IRAK1; [4]): -7%; inhibition at 1 µM (PIK3C2A (PI3K-C2 alpha); [3]): -5%; inhibition at 10 µM (PIK3C2A (PI3K-C2 alpha); [4]): 1%; inhibition at 1 µM [2, 3]: 16%; inhibition at 10 µM [2, 4]: 63%
